The values below come from US20140296143A1, “Angiotensin-(1-7) As A Chemoprevention Agent” (Wake Forest Innovations, priority 2008, published 2014).

“And” between values parts separate entries of the source, which are not always exact repeats. Equal values may be shown once. Read-outs that look alike come from different tables or passages of the source. A value given as a limit tells only on which side of the number the result lay.

Series [1] concerns ZR-75-1 breast cancer cells. Type of series: cell-based, human. How it is done:
Unless otherwise stated, cells were grown in DMEM with 10% fetal bovine serum (FBS), […] in a humidified 37° C. incubator gassed with 5% CO2 and 95% room air. Cells were grown to subconfluence in either 24-well cluster plates or 100 mm dishes and made quiescent by treatment for 48 h with serum-depleted growth media, prior to the experiments outlined below to measure cell growth (^3H-thymidine incorporation), cell signaling or apoptosis.
[…] Subsequently, the cell monolayer was washed with cold phosphate-buffered saline (PBS; 50 mM NaPO4, 120 mM NaCl, pH=7.2). The adherent cells were precipitated with cold 10% TCA (4° C. for 30 min) and dissolved in 0.2% SDS in 0.1 N NaOH. Incorporated ^3H-thymidine was determined by liquid scintillation spectrometry, as previously described (Freeman, E. J. et al., Hypertension, 1996, 28:104-108). Growth inhibition was defined as a reduction in the amount of ^3H-thymidine incorporation as compared to the mitogen-stimulated controls.

For series [2] the following is noted: breast cancer patients, 30 minutes following subcutaneous injection, n=3, Rodgers 2005, cited from earlier work.
The test system of series [3] is A549 human lung tumor xenografts. Nature of the series: A549 human lung tumor xenograft in athymic mice, intravenous infusion. The class given is in vivo, mouse. The protocol:
For reverse-transcriptase real-time PCR, RNA was isolated from cells or tissue, using the TRIzol reagent (GIBCO Invitrogen Corp., Carlsbad, Calif.), as directed by the manufacturer. The RNA concentration and integrity were assessed using an Agilent 2100 Bioanalyzer with an RNA 6000 nano LabChip (Agilent Technologies, Palo Alto, Calif.). Approximately 1 μg of total RNA was reverse transcribed using avian myeloblastosis virus reverse transcriptase (RT) in a 20 μL mixture containing deoxyribonucleotides, random hexamers and RNase inhibitor in RT buffer. Heating the RT reaction product at 95° C. terminated the reaction. For real-time polymerase chain reaction (PCR), 2 μL of the resultant cDNA was added to TaqMan Universal PCR Master Mix (Applied Biosystems, Foster City, Calif.) with a gene-specific primer/probe set (Applied Biosystems, Foster City, Calif.) and amplification was performed on an ABI 7000 Sequence Detection System. The mixtures were heated at 50° C. for 2 min, at 95° C. for 10 min followed by 40 cycles at 95° C. for 15 sec and 60° C. for 1 min. All reactions were performed in triplicate and 18S ribosomal RNA, amplified using the TaqMan Ribosomal RNA Control Kit (Applied Biosystems), served as an internal control. The results were quantified as Ct values, where Ct is defined as the threshold cycle of PCR at which amplified product is first detected, and expressed as the ratio of target/control (Relative Gene Expression).
Quiescent A549 lung cancer cells or tumor tissue cut into approximately 1-2 mm^2 size pieces were homogenized in phosphate-buffered saline (PBS; 50 mM NaPO4, pH=7.2, 100 mM NaCl). Plasma membranes were isolated by centrifugation and solubilized by boiling in 3% SDS-10% B-mercaptoethanol. PBS was added to the membrane fraction to solubilize the proteins. The protein concentration was measured by a modification of the Lowry method. Solubilized protein (20 μg/well) from saline- and Ang-(1-7)-treated animals were separated by SDS-polyacrylamide gel electrophoresis and transferred to polyvinyl membranes (Amersham Pharmacia, Piscataway, N.J.). Non-specific binding was blocked with 5% blotto (5% evaporated milk, 0.1% Triton X-100 in Tris-buffered saline (TBS; 50 mM Tris-HCl, pH 7.4, 50 mM NaCl). The membranes were incubated with a COX-2 antibody (1:1000; Cayman Chemicals, Ann Arbor, Mich.) followed by a goat anti-rabbit antibody (1:1000; Amersham, Piscataway, N.J.) coupled to horseradish peroxidase. Chemiluminescence reagents were added to visualize the immunoreactive bands, which were quantified by densitometry. An antibody to actin (Sigma, St Louis, Mo.) served as the loading control.
Male or female athymic mice (15-20 g, 2-4 weeks of age, Charles River Laboratory, Wilmington, Mass.) were housed in cages with HEPA-filtered air (12-hour light/dark cycle) and ad libitum access to food and autoclaved water. All procedures complied with the policies of the Wake Forest University Animal Care and Use Committee. Mice were inoculated subcutaneously in the lower left flank with approximately 1.9×10^6 A549 lung cancer cells or ZR-75-1 breast cancer cells suspended in 200 μL of cold Matrigel (BD Biosciences, Bedford, Mass.). […] The mice were anesthetized by inhalation with 1.5% isoflurane. […] The minipumps also contained heparin (25 U/mL) to maintain patency of the catheter. On day 28 of the infusion, the animals were anesthetized with halothane and sacrificed by decapitation. Alternatively, the mice received daily subcutaneous injections of Ang-(1-7) in saline or saline alone.
Tumors were fixed with 4% paraformaldehyde for 24 h and incubated in 70% ethanol for 48 h prior to embedding in paraffin. The embedded tumors were cut into five micron thick sections and stained with hematoxylin and eosin to determine morphology. […]
(In general: Xenograft models place foreign cells or tissue in a host animal.)

[4] abbreviates: 24 μg/kg/h intravenous, 28 days, versus saline.
Where [5] appears, read: 28 days infusion, versus saline.

Broadly, the IC50 is the concentration at which inhibition is half-maximal. Low values mean greater potency in that assay, high ones weaker potency in that assay. Consider `CC[C@H](C)[C@H](NC(=O)[C@H](Cc1ccc(O)cc1)NC(=O)[C@@H](NC(=O)[C@H](CCCNC(=N)N)NC(=O)[C@@H](N)CC(=O)O)C(C)C)C(=O)N[C@@H](Cc1c[nH]cn1)C(=O)N1CCC[C@H]1C(=O)O` [Ang-(1-7), Asp-Arg-Val-Tyr-Ile-His-Pro], for which the IC50 in series [1] (48 h) amounted to 20 pM. In series [1] (ZR-75-1), this compound came in with a maximal inhibition of 37.2±6.1. For the same compound, the “^3H-thymidine incorporation over time of treatment” value in series [1] (ZR-75-1, 1% FBS, daily addition of 100 nM) is recorded as “progressively reduced”. The “plasma Ang-(1-7)” value in series [2] (100 μg/kg/day) was 3209.5 pg/mL and 3.6 nM. In series [2], the “plasma Ang-(1-7)” value was 49.43 pg/mL and 0.055 nM. Besides, in series [3] (setting [4]), the capsular vessel number entry is given as “no difference”, the “down-regulation in VEGF mRNA in tumor tissue” value was “greater than 50%” and the “reduction in intratumoral vessel formation” value is greater than 75%. For the same compound, the “average tumor volume at end of infusion” value in series [3] (24 μg/kg/h intravenous, day 28, n=5, saline 326.3±47.2) is listed as 84.4±19.8 mm^3. In series [3] (24 μg/kg/h, 28 days), the “body weight, food and water consumption during infusion” value was “maintained their body weight as well as food and water consumption”; the “gross pathology of major organs following sacrifice” value was “no gross pathological abnormalities”. In series [3] (setting [5]), the “APAF mRNA in tumor tissue” value is listed as “significant increase” and the “caspase 3 mRNA in tumor tissue” value is recorded as “significant increase”. Also, the “COX-2 protein, density of COX-2 immunoreactivity as a function of actin” value in series [3] (Western blot of tumor tissue, n=5, saline 0.99±0.12) was found to be 0.41±0.09. In addition, the “tumor weight less than saline-infused” value in series [3] (at sacrifice, day 28) is listed as 50%. In series [3] (at sacrifice, day 28, n=5, saline 0.28±0.03), this compound showed a tumor weight of 0.13 ± 0.01 g. Also, the “proportion of apoptotic nuclei (cleaved caspase 3)” value in series [3] (intravenous infusion, n=4-5, saline 18.8±9.4%) is on record as 75±4.6%. For the same compound, the “proportion of proliferating cells (Ki67)” value in series [3] (n=5, saline 73±[…]) came out at 49.5±9.4%. The “reduction of COX-2 protein” value in series [3] (tumor tissue, versus saline) stood at 59%. Moreover, the “decrease in COX-2 mRNA” value in series [3] (tumor xenografts, RT real-time PCR, versus saline) came to 57%.
